Laboratory results published in patent publication US20130116302A1, “PHARMACEUTICAL COMPOSITION FOR THE TREATMENT OF CHLAMYDIAL INFECTION” (Max-Planck-Gesellschaft zur Foerderung der Wissenschaften …, priority 2010, published 2013).
Where two headings read alike, the source gives them in different places.

Legend:
Chlamydia = assay: effect of chemical inhibitors of GMPS on Chlamydia infection; assay type: cell-based; details: for Chlamydia replication: chemical inhibitor of GMPS added to infected cells
Method: The effect of chemical inhibitors of GMPS on Chlamydia infection was tested.

[1] = test system: Chlamydia trachomatis (Ctr); details: 10 μM or 100 μM U0126 added 2 h after infection; lysed 48 h p.i.; FIG. 3D
Method: (§1) Western blotting analysis (30 hours post-infection) of (A) uninfected and Ctr-infected cells with and without U0126, (B) uninfected and Ctr-infected cells transfected with siRNAs targeting luciferase or MEK1 and 2, and (C) uninfected and Ctr-infected cells transfected with siRNAs targeting luciferase, K-Ras, or Raf-1. β-actin was used as a loading control. (D) Uninfected and Ctr-infected cells treated with or without UO126 were lysed at 48 hours post-infection and these samples were used to infect freshly seeded cells. These cells were fixed 24 hours post-infection and the infectivity was quantified. Data shown are the mean±SD of three experiments normalized to mock-treated, infected cells. (E) Uninfected and Ctr-infected cells, untransfected of transfected with siRNAs specific for luciferase, K-Ras, or Raf-1 were lysed 48 hours post-infection and these samples were then used to infect freshly seeded cells. These cells were fixed 24 hours post-infection and the infectivity of the bacteria was quantified. […] Western blots depicted in (A) to (C) are representative of three experiments.

ERK = details: 30 hours post-infection; FIG. 3A
Method: as §1

cPLA2 [2] = details: 30 hours post-infection; FIG. 3A
Method: as §1

cPLA2 [3] = details: Su et al., 2004; cited from earlier work
Ctr = details: Su et al., 2004; cited from earlier work
bloodstream T. brucei [4] = details: bloodstream T. brucei in culture; cited from earlier work
PPAT, GMPS, CAD, CTPS = details: de novo pathway of purine and pyrimidine synthesis; cited from earlier work
P. falciparum = details: in vitro; cited from earlier work
bloodstream T. brucei [5] = details: mouse model; cited from earlier work
Leishmania donovani = details: vector and host form; cited from earlier work
[6] = test system: cellular UTP, CTP, GMP, ATP, ITP; details: Neil et al., 1979; cited from earlier work
GMPS = GMPS (Escherichia coli, UniProt P04079); details: Chittur et al., 2001, cited from earlier work
GMPS, sequence (P04079 whole entry): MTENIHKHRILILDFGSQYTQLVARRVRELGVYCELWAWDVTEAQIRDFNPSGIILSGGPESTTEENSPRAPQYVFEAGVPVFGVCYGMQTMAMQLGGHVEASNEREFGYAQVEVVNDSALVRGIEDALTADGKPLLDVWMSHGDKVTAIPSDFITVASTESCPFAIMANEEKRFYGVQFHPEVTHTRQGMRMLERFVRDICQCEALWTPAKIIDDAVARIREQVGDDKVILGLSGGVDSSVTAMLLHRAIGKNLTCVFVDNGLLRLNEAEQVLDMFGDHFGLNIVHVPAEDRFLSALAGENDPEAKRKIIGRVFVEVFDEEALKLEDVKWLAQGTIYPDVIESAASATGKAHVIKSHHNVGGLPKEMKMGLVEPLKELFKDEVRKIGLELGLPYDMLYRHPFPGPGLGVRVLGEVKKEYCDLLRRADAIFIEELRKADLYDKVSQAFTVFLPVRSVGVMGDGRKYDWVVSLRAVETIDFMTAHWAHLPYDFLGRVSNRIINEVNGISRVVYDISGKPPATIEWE

C. trachomatis L2 = assay: genome-wide siRNA-based screen in human epithelial cells, formation of Chlamydia infectious progeny; assay type: cell-based; details: Table 1b, primary screen, genes of nucleotide metabolism
Excerpt: We performed a genome-wide siRNA-based screen in human epithelial cells to identify host cell factors that are essential for Chlamydia infection using the Qiagen Hu_Genome Set V1.0 and the Human Druggable Genome siRNA Set V2.0. C. trachomatis L2 was used.

C=C1O[C@@](CO)(n2cnc3c(N)ncnc32)[C@H](O)[C@@H]1O [Decoyinine]
Chlamydia replication (Chlamydia): no inhibitory effect

N#CC(=C(/N)Sc1ccccc1N)/C(C#N)=C(\N)Sc1ccccc1N [U0126]
infectivity of Ctr [1]: decreased
phosphorylation of ERK in response to infection (ERK): repressed
phosphorylation of cPLA2 in response to infection (cPLA2 [2]): repressed
extent of phosphorylation of cPLA2 (cPLA2 [3]): reduces
infectivity of Ctr (Ctr): decreases

N[C@H](C(=O)O)[C@@H]1CC(Cl)=NO1 [acivicin, L-[αS,5S]-α-amino-3-chloro-4,5-dihydro-5-isoxazoleacetic acid]
Chlamydia replication after addition of the nucleotides GTP and GMP (Chlamydia; cells to which acivicin was added): recover Chlamydia replication
Chlamydia replication (Chlamydia): complete block
antitrypanosomal activity (bloodstream T. brucei [4]): antitrypanosomal activity
inhibition of PPAT, GMPS, CAD and CTPS (PPAT, GMPS, CAD, CTPS): inhibits
growth of P. falciparum (P. falciparum): inhibit the growth
antitrypanosomal activity (bloodstream T. brucei [5]): antitrypanosomal activity
killing of Leishmania donovani (Leishmania donovani): kills both the vector and the host form
cellular nucleotide concentrations [6]: decrease of cellular UTP, CTP, and GMP concentrations, with no alteration in ATP or ITP pools
inhibition of GMPS (γ-glutamine amidotransferase activity) (GMPS): inhibit
inhibition of GMPS (γ-glutamine amidotransferase activity) (GMPS; listed as Acivicin): irreversibly inhibits

Hs_PDE1A_2: siRNA, target gene PDE1A (sense ACAGAGTGCTATAACTATAAA; chemistry not given here; the letters are possibly those of the target site)
Infectivity phenotype upon Knockdown (C. trachomatis L2): down

Hs_PDE1A_4: siRNA, target gene PDE1A (sense ACACAGAGTGCTATAACTATA; chemistry not given here; the letters are possibly those of the target site)
Infectivity phenotype upon Knockdown (C. trachomatis L2): down

Hs_PDE2A_3: siRNA, target gene PDE2A (sense ACCGCTTTGTACATGAGAATA; chemistry not given here; the letters are possibly those of the target site)
Infectivity phenotype upon Knockdown (C. trachomatis L2): down

Hs_PDE2A_4: siRNA, target gene PDE2A (sense ATCGCGGAGCTGATCTACAAA; chemistry not given here; the letters are possibly those of the target site)
Infectivity phenotype upon Knockdown (C. trachomatis L2): down

Hs_PDE4A_2: siRNA, target gene PDE4A (sense TTCGATCTTGTCTCCAATTAA; chemistry not given here; the letters are possibly those of the target site)
Infectivity phenotype upon Knockdown (C. trachomatis L2): down

Hs_PDE4A_4: siRNA, target gene PDE4A (sense ATGGGAAGTCGTGTCATCCTA; chemistry not given here; the letters are possibly those of the target site)
Infectivity phenotype upon Knockdown (C. trachomatis L2): down

Hs_PDE4D 3: siRNA, target gene PDE4D (sense TACCCACTAATGGACAATCAA; chemistry not given here)
Infectivity phenotype upon Knockdown (C. trachomatis L2): down

Hs_PDE4D_4: siRNA, target gene PDE4D (sense CAGGTAGTTAAGTTAGGGTTA; chemistry not given here; the letters are possibly those of the target site)
Infectivity phenotype upon Knockdown (C. trachomatis L2): down

Hs_PDE6B_2: siRNA, target gene PDE6B (sense CACGCTGCTCATGACCGGCAA; chemistry not given here; the letters are possibly those of the target site)
Infectivity phenotype upon Knockdown (C. trachomatis L2): down

Hs_PDE6B_4: siRNA, target gene PDE6B (sense GCCCACCACATTTGACATCTA; chemistry not given here; the letters are possibly those of the target site)
Infectivity phenotype upon Knockdown (C. trachomatis L2): down
